Source: ChEMBL document CHEMBL4251601 (Eur J Med Chem, 2018)

Assays:
[1] = AUC (0 to infinity) in Sprague-Dawley rat at 5 mg/kg, po administered as single dose by LC-MS/MS analysis; format: ADME, organism-based; set-up: dose 5 mg/kg, route oral, time infinity; conditions: Sprague-Dawley, in vivo
[2] = target: T1, Mitogen-activated protein kinase kinase kinase 14 (Homo sapiens, UniProt Q99558); assay: Inhibition of recombinant human GST-tagged NIK expressed in baculovirus expression system using ser/thr-7 as substrate preincubated for 15 mins followed by ATP addition measured after 60 mins
[3] = target: CDK8/Cyclin C (Homo sapiens) (UniProt P49336+P24863); assay: Inhibition of recombinant full length human His-tagged CDK8/Cyclin-C expressed in baculovirus expression system at 0.1 uM by LanthaScreen assay relative to control
[4] = target: RAC-gamma serine/threonine-protein kinase (Homo sapiens) (UniProt Q9Y243); assay: Inhibition of recombinant full length human His-tagged AKT3 expressed in baculovirus expression system at 0.1 uM by TR-FRET assay relative to control
[5] = target: ALK tyrosine kinase receptor (Homo sapiens) (UniProt Q9UM73); assay: Inhibition of recombinant N-terminal GST-tagged human ALK cytoplasmic domain (1058 to 1620 residues) expressed in baculovirus expression system at 0.1 uM by TR-FRET assay relative to control
[6] = target: Tyrosine-protein kinase receptor UFO (Homo sapiens) (UniProt P30530); assay: Inhibition of recombinant human N-terminal GST tagged AXL (473-end residues) expressed in baculovirus infected Sf9 cells at 0.1 uM by Z'-Lyte assay relative to control
[7] = target: Casein kinase I isoform gamma-1 (Homo sapiens) (UniProt Q9HCP0); assay: Inhibition of recombinant full length human GST-tagged CK1gamma1 expressed in baculovirus expression system at 0.1 uM by Z'-Lyte assay relative to control
[8] = target: Dual specificity tyrosine-phosphorylation-regulated kinase 3 (Homo sapiens) (UniProt O43781); assay: Inhibition of recombinant full length human GST-tagged DYRK3 expressed in baculovirus expression system at 0.1 uM by Z'-Lyte assay relative to control
[9] = target: G protein-coupled receptor kinase 5 (Homo sapiens) (UniProt P34947); assay: Inhibition of recombinant human full length GST-tagged GRK5 expressed in baculovirus expression system at 0.1 uM by Z'-Lyte assay relative to control
Chain of G protein-coupled receptor kinase 5 (Homo sapiens) (P34947 whole entry, looked up): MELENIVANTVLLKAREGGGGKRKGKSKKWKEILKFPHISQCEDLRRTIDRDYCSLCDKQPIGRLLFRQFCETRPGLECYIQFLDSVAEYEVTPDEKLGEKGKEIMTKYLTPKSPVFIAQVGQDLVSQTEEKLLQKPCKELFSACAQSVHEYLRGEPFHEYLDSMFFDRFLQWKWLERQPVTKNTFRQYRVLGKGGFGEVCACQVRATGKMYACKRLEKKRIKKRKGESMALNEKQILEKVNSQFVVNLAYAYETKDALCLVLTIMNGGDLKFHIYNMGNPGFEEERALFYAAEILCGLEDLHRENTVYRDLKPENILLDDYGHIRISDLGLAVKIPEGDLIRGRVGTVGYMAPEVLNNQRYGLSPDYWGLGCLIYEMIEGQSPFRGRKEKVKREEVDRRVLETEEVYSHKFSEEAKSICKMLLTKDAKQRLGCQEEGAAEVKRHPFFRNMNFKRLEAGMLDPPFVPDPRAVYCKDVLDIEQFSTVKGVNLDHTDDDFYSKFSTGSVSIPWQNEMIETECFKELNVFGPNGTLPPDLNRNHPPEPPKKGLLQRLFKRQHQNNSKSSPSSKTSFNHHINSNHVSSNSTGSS

[10] = target: Serine/threonine-protein kinase 10 (Homo sapiens) (UniProt O94804); assay: Inhibition of LOK1 (unknown origin) at 0.1 uM by Z'-Lyte assay relative to control
Chain of Serine/threonine-protein kinase 10 (Homo sapiens) (O94804 whole entry, looked up): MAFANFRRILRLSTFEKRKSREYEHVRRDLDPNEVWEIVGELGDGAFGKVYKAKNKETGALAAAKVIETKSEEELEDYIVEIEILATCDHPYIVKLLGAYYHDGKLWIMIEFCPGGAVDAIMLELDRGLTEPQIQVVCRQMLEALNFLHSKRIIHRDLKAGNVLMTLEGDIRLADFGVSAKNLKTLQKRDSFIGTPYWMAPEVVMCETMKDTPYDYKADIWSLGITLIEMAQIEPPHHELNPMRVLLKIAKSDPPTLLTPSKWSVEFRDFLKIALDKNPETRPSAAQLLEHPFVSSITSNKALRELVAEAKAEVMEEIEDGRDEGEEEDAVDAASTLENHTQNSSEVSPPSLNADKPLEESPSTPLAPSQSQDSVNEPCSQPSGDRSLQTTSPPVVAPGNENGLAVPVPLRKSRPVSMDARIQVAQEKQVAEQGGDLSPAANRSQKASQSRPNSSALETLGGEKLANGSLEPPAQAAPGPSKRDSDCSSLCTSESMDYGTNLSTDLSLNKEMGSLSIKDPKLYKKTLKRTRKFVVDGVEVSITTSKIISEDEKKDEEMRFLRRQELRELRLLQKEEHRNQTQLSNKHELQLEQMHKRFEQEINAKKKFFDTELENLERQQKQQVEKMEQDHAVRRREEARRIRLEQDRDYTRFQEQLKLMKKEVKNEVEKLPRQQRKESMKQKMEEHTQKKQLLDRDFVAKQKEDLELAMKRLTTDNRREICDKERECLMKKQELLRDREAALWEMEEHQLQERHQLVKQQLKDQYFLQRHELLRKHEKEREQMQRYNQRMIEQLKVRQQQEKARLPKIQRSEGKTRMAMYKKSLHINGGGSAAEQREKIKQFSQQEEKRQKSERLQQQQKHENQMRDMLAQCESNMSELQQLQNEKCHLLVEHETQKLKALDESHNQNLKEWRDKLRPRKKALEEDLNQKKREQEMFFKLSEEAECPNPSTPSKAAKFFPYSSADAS

[11] = target: T1, Mitogen-activated protein kinase kinase kinase 14; assay: Inhibition of recombinant human GST-tagged NIK expressed in baculovirus expression system at 0.1 uM by Z'-Lyte assay relative to control
[12] = target: Serine/threonine-protein kinase 26 (Homo sapiens) (UniProt Q9P289); assay: Inhibition of recombinant human full length GST-tagged MST4 expressed in baculovirus expression system at 0.1 uM by Z'-Lyte assay relative to control
[13] = target: Phosphatidylinositol 4,5-bisphosphate 3-kinase catalytic subunit delta isoform (Homo sapiens) (UniProt O00329); assay: Inhibition of PI3K delta (unknown origin) at 0.1 uM by ADP-Glo assay relative to control
Chain of Phosphatidylinositol 4,5-bisphosphate 3-kinase catalytic subunit delta isoform (Homo sapiens) (O00329 whole entry, the tested form may be a part, canonical isoform): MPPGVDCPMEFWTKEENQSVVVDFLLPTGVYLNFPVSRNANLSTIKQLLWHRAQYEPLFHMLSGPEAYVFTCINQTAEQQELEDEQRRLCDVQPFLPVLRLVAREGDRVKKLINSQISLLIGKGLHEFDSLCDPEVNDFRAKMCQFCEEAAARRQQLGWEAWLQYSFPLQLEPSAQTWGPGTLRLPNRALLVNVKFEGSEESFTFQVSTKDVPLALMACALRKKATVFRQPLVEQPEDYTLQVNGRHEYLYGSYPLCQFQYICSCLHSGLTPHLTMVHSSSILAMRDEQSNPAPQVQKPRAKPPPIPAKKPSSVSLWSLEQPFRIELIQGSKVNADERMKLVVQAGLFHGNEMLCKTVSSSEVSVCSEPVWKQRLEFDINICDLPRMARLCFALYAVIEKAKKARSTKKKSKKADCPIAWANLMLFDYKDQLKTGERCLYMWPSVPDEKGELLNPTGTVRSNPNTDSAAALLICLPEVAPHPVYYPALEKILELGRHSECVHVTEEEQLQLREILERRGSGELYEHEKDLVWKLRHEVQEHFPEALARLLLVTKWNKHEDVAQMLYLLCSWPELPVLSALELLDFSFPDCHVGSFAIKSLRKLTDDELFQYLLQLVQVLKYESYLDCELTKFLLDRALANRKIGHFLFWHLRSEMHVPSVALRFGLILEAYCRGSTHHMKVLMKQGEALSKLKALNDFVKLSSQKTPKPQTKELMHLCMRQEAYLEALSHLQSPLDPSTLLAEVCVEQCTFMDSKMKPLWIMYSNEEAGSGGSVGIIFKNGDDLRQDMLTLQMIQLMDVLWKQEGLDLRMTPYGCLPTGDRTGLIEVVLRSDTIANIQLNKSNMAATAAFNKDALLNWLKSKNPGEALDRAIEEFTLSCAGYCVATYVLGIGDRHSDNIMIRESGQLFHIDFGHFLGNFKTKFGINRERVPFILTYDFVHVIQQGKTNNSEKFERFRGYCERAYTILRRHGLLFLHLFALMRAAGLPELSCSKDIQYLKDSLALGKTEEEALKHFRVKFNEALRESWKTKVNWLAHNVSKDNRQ

[14] = target: Proto-oncogene tyrosine-protein kinase receptor Ret (Homo sapiens) (UniProt P07949); assay: Inhibition of recombinant human GST-tagged RET cytoplasmic domain (658 to 1114 residues) expressed in baculovirus expression system at 0.1 uM by Z'-Lyte assay relative to control
Chain of Proto-oncogene tyrosine-protein kinase receptor Ret (Homo sapiens) (P07949 whole entry, the tested form may be a part): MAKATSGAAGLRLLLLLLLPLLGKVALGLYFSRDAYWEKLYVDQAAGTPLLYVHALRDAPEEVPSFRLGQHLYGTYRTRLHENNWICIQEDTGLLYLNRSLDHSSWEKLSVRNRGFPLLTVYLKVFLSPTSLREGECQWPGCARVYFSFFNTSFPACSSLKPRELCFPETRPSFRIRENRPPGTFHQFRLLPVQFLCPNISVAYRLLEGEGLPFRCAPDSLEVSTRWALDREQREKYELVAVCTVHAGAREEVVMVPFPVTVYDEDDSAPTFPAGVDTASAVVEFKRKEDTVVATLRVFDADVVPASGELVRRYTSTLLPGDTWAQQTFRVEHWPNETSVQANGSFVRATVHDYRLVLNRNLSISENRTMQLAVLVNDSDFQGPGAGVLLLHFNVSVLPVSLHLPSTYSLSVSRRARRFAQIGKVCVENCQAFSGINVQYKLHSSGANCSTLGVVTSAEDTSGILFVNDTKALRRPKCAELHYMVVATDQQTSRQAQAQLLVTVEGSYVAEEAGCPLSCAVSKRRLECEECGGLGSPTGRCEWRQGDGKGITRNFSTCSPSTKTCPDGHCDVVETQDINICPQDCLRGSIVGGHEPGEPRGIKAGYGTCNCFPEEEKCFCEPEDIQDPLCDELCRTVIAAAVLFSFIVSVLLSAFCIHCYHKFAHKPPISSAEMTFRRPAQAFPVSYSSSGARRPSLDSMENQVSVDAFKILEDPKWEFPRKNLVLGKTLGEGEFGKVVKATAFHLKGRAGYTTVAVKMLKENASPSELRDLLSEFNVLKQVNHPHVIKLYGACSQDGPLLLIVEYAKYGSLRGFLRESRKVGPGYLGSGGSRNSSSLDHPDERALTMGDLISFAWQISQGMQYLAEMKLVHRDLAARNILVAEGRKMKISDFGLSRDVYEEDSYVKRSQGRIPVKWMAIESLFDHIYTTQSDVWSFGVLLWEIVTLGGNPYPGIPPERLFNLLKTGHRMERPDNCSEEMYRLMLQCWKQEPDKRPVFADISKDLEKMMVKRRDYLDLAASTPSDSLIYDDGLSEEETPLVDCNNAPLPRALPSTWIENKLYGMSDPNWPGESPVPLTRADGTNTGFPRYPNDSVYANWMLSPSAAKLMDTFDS

[15] = target: Tyrosine-protein kinase Srms (Homo sapiens) (UniProt Q9H3Y6); assay: Inhibition of recombinant human full length GST-tagged SRMS expressed in baculovirus expression system at 0.1 uM by TR-FRET assay relative to control
Chain of Tyrosine-protein kinase Srms (Homo sapiens) (Q9H3Y6 whole entry, the tested form may be a part): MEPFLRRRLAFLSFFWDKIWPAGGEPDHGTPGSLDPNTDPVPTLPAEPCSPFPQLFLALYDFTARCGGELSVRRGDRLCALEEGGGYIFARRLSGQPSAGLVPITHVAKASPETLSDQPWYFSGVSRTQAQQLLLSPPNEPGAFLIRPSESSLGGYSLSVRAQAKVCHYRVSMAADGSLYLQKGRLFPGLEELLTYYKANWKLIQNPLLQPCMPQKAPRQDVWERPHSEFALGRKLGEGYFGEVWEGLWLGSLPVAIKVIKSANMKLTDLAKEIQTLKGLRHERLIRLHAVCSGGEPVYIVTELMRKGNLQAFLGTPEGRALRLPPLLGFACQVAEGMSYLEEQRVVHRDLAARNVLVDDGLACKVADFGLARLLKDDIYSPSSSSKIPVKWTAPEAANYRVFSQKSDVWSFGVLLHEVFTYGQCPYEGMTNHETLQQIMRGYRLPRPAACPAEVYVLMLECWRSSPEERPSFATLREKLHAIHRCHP

[16] = target: CDK6/cyclin D3 (Homo sapiens) (UniProt P30281+Q00534); assay: Inhibition of recombinant full length human GST-tagged CDK6/Cyclin-D3 expressed in baculovirus expression system at 1 uM by TR-FRET assay relative to control
[17] = target: Beta-adrenergic receptor kinase 1 (Homo sapiens) (UniProt P25098); assay: Inhibition of recombinant human full length His-tagged GRK2 expressed in baculovirus expression system at 1 uM by Z'-Lyte assay relative to control
Chain of Beta-adrenergic receptor kinase 1 (Homo sapiens) (P25098 whole entry): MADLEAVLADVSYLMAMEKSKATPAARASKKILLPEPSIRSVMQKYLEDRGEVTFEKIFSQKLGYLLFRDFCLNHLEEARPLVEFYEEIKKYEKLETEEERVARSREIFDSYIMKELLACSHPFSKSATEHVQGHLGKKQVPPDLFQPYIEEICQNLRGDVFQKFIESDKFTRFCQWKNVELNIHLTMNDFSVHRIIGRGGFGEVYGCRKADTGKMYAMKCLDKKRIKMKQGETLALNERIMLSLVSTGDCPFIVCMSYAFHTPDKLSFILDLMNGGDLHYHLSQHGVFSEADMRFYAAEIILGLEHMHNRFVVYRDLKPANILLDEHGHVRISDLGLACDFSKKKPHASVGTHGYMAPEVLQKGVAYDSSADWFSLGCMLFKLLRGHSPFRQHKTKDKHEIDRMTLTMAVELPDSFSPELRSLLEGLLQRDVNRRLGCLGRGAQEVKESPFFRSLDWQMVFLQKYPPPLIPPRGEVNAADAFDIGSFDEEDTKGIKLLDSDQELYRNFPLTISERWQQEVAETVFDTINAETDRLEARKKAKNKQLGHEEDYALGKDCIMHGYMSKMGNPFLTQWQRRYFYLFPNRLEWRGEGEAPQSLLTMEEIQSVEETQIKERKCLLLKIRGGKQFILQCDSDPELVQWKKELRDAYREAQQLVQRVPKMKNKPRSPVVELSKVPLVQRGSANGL

[18] = target: Tyrosine-protein kinase Lyn (Homo sapiens) (UniProt P07948); assay: Inhibition of recombinant human full length GST-tagged Lyn-A expressed in insect cells at 1 uM by Z'-Lyte assay relative to control
[19] = target: Serine/threonine-protein kinase PAK 1 (Homo sapiens) (UniProt Q13153); assay: Inhibition of recombinant human full length GST-tagged PAK1 expressed in baculovirus expression system at 1 uM by Z'-Lyte assay relative to control
[20] = target: Serine/threonine-protein kinase PAK 4 (Homo sapiens) (UniProt O96013); assay: Inhibition of recombinant human GST-tagged PAK4 expressed in baculovirus expression system at 1 uM by Z'-Lyte assay relative to control
[21] = target: Phosphatidylinositol 4,5-bisphosphate 3-kinase catalytic subunit delta isoform (Homo sapiens) (UniProt O00329); assay: Inhibition of PI3K delta (unknown origin) at 1 uM by ADP-Glo assay relative to control
[22] = target: cAMP-dependent protein kinase catalytic subunit alpha (Homo sapiens) (UniProt P17612); assay: Inhibition of recombinant human His-tagged PKA expressed in Escherichia coli at 1 uM by Z'-Lyte assay relative to control
[23] = target: STE20-like serine/threonine-protein kinase (Homo sapiens) (UniProt Q9H2G2); assay: Inhibition of recombinant human full length GST-tagged SLK expressed in baculovirus expression system at 1 uM by LanthaScreen assay relative to control
[24] = target: Tyrosine-protein kinase Srms (Homo sapiens) (UniProt Q9H3Y6); assay: Inhibition of recombinant human full length GST-tagged SRMS expressed in baculovirus expression system at 1 uM by TR-FRET assay relative to control
[25] = target: High affinity nerve growth factor receptor (Homo sapiens) (UniProt P04629); assay: Inhibition of recombinant human His-tagged TRKA cytoplasmic domain expressed in baculovirus expression system at 1 uM by Z'-Lyte assay relative to control
[26] = Dissociation constant, pKa of the compound at pH 3 to 11 by pH metric method; format: physicochemical
[27] = Half life in CD-1 mouse plasma at 10 mg/kg, po administered as single dose by LC-MS/MS analysis; format: ADME, organism-based
[28] = Unbound AUC (0 to 24 hrs) in CD-1 mouse plasma at 10 mg/kg, po administered as single dose by LC-MS/MS analysis; format: ADME, organism-based; conditions: in vivo
[29] = Unbound Cmax in CD-1 mouse brain at 10 mg/kg, po administered as single dose by LC-MS/MS analysis; format: ADME, organism-based; conditions: in vivo
[30] = test system: U-87 MG; assay: Antitumor activity against luciferase-fused human U87MG cells orthotopically xenografted in nude mouse assessed as tumor growth inhibition at 3.125 mg/kg, po qd for 4 weeks by bioluminescence imaging relative to control; format: functional, U-87MG ATCC; conditions: 672 h, read-out: TGI
[31] = target: Tyrosine-protein kinase SYK (Homo sapiens) (UniProt P43405); assay: Inhibition of recombinant human full length GST-tagged SYK expressed in baculovirus expression system at 0.1 uM by Z'-Lyte assay relative to control

## CC1=Nc2c(F)cc(-c3nc(Nc4ccc(C5CCN(C)CC5)cn4)ncc3F)cc2C12CCCC2 [CROZBACICLIB]
[1]
  AUC(0-inf): 1580 ng·h/mL
[2]
  IC50: 45 nM
[3]
  inhibition: 43%
[4]
  inhibition: 10%
[5]
  inhibition: 7%
[6]
  inhibition: -1%
[7]
  inhibition: 3%
[8]
  inhibition: 29%
[9]
  inhibition: -1%
[10]
  inhibition: 11%
[11]
  inhibition: 56%
[12]
  inhibition: -5%
[13]
  inhibition: 2%
[14]
  inhibition: 0%
[15]
  inhibition: 20%
[16]
  inhibition: 101%
[17]
  inhibition: -1%
[18]
  inhibition: 2%
[19]
  inhibition: 28%
[20]
  inhibition: 12%
[21]
  inhibition: 14%
[22]
  inhibition: 8%
[23]
  inhibition: 42%
[24]
  inhibition: 6%
[25]
  inhibition: 48%
[26]
  pKa: 8.19
[27]
  half-life: 6.03 h
[28]
  fAUC: 63.45 ng·h/mL
[29]
  fCmax: 1.03 ng/g
[30]
  inhibition in vivo at 3.125 mg/kg: 62%
[31]
  inhibition: 5%
